Results taken from ChEMBL document CHEMBL1153884, “Oligonucleotide-polyamine conjugates: influence of length and position of 2'-attached polyamines on duplex stability and antisense effect” (2009).

Key:
[1] = Antisense effect in human 607B cells assessed as down-regulation of bcl2 expression at 100 nM after 48 hrs by Western blot analysis relative to control; assay type: functional
Nucleic Acid [2] = experiment: Duplex stability of RNA counter strand assessed as melting temperature; assay type: nucleic-acid assay
Nucleic Acid [3] = experiment: Duplex stability of DNA counter strand assessed as melting temperature; assay type: nucleic-acid assay

SMILES | Activity [1] | Tm (Nucleic Acid [2]) | Tm (Nucleic Acid [3])
Cc1cn([C@H]2C[C@H](OP(O)(=S)OC[C@H]3O[C@@H](n4ccc(N)nc4=O)[C@H](O)[C@@H]3OP(O)(=S)OC[C@H]3O[C@@H](n4cc(C)c(=O)[nH]c4=O)C[C@@H]3O)[C@@H](COP(O)(=S)O[C@H]3[C@@H](O)[C@H](n4ccc(N)nc4=O)O[C@@H]3COP(O)(=S)O[C@H]3[C@@H](O)[C@H](n4ccc(N)nc4=O)O[C@@H]3COP(O)(=S)O[C@H]3[C@@H](O)[C@H](n4ccc(N)nc4=O)O[C@@H]3COP(O)(=S)O[C@H]3[C@@H](O)[C@H](n4cnc5c(N)ncnc54)O[C@@H]3COP(O)(=S)O[C@H]3[C@@H](O)[C@H](n4cnc5c(=O)[nH]c(N)nc54)O[C@@H]3COP(O)(=S)O[C@H]3[C@@H](O)[C@H](n4ccc(N)nc4=O)O[C@@H]3COP(O)(=S)O[C@H]3[C@@H](O)[C@H](n4cnc5c(=O)[nH]c(N)nc54)O[C@@H]3COP(O)(=S)O[C@H]3C[C@H](n4cc(C)c(=O)[nH]c4=O)O[C@@H]3COP(O)(=S)O[C@H]3[C@@H](O)[C@H](n4cnc5c(=O)[nH]c(N)nc54)O[C@@H]3COP(O)(=S)O[C@H]3[C@@H](O)[C@H](n4ccc(N)nc4=O)O[C@@H]3COP(O)(=S)O[C@H]3[C@@H](O)[C@H](n4cnc5c(=O)[nH]c(N)nc54)O[C@@H]3COP(O)(=S)O[C@H]3[C@@H](O)[C@H](n4ccc(N)nc4=O)O[C@@H]3COP(O)(=S)O[C@H]3[C@@H](O)[C@H](n4ccc(N)nc4=O)O[C@@H]3COP(O)(=S)O[C@H]3[C@@H](O)[C@H](n4cnc5c(N)ncnc54)O[C@@H]3COP(O)(=S)O[C@H]3[C@@H](NCCCNCCCCNCCCN)[C@H](n4ccc(=O)[nH]c4=O)O[C@@H]3CO)O2)c(=O)[nH]c1=O (some centres not stated) | 19.4% | 53.5 °C | 68.5 °C
Cc1cn([C@H]2C[C@H](OP(O)(=S)OC[C@H]3O[C@@H](n4cnc5c(N)ncnc54)[C@H](O)[C@@H]3OP(O)(=S)OC[C@H]3O[C@@H](n4ccc(N)nc4=O)[C@H](O)[C@@H]3OP(O)(=S)OC[C@H]3O[C@@H](n4ccc(N)nc4=O)[C@H](O)[C@@H]3OP(O)(=S)OC[C@H]3O[C@@H](n4cnc5c(=O)[nH]c(N)nc54)[C@H](O)[C@@H]3OP(O)(=S)OC[C@H]3O[C@@H](n4ccc(N)nc4=O)[C@H](O)[C@@H]3OP(O)(=S)OC[C@H]3O[C@@H](n4cnc5c(=O)[nH]c(N)nc54)[C@H](O)[C@@H]3OP(O)(=S)OC[C@H]3O[C@@H](n4cc(C)c(=O)[nH]c4=O)C[C@@H]3OP(O)(=S)OC[C@H]3O[C@@H](n4cnc5c(=O)[nH]c(N)nc54)[C@H](O)[C@@H]3OP(O)(=S)OC[C@H]3O[C@@H](n4ccc(N)nc4=O)[C@H](O)[C@@H]3OP(O)(=S)OC[C@H]3O[C@@H](n4cnc5c(=O)[nH]c(N)nc54)[C@H](O)[C@@H]3OP(O)(=S)OC[C@H]3O[C@@H](n4cnc5c(N)ncnc54)[C@H](O)[C@@H]3OP(O)(=S)OC[C@H]3O[C@@H](n4ccc(N)nc4=O)[C@H](O)[C@@H]3OP(O)(=S)OC[C@H]3O[C@@H](n4ccc(N)nc4=O)[C@H](O)[C@@H]3OP(O)(=S)OC[C@H]3O[C@@H](n4ccc(N)nc4=O)[C@H](O)[C@@H]3OP(O)(=S)OC[C@H]3O[C@@H](n4cc(C)c(=O)[nH]c4=O)C[C@@H]3OP(O)(=S)OC[C@H]3O[C@@H](n4ccc(N)nc4=O)[C@H](O)[C@@H]3OP(O)(=S)OC[C@H]3O[C@@H](n4cc(C)c(=O)[nH]c4=O)C[C@@H]3O)[C@@H](CO)O2)c(=O)[nH]c1=O (some centres not stated) | 25% | 53.1 °C | 71.4 °C
Cc1cn([C@H]2C[C@H](OP(O)(=S)OC[C@H]3O[C@@H](n4ccc(N)nc4=O)[C@H](O)[C@@H]3OP(O)(=S)OC[C@H]3O[C@@H](n4cc(C)c(=O)[nH]c4=O)C[C@@H]3O)[C@@H](COP(O)(=S)O[C@H]3[C@@H](O)[C@H](n4ccc(N)nc4=O)O[C@@H]3COP(O)(=S)O[C@H]3[C@@H](O)[C@H](n4ccc(N)nc4=O)O[C@@H]3COP(O)(=S)O[C@H]3[C@@H](O)[C@H](n4ccc(N)nc4=O)O[C@@H]3COP(O)(=S)O[C@H]3[C@@H](O)[C@H](n4cnc5c(N)ncnc54)O[C@@H]3COP(O)(=S)O[C@H]3[C@@H](O)[C@H](n4cnc5c(=O)[nH]c(N)nc54)O[C@@H]3COP(O)(=S)O[C@H]3[C@@H](O)[C@H](n4ccc(N)nc4=O)O[C@@H]3COP(O)(=S)O[C@H]3[C@@H](O)[C@H](n4cnc5c(=O)[nH]c(N)nc54)O[C@@H]3COP(O)(=S)O[C@H]3C[C@H](n4cc(C)c(=O)[nH]c4=O)O[C@@H]3COP(O)(=S)O[C@H]3[C@@H](O)[C@H](n4cnc5c(=O)[nH]c(N)nc54)O[C@@H]3COP(O)(=S)O[C@H]3[C@@H](O)[C@H](n4ccc(N)nc4=O)O[C@@H]3COP(O)(=S)O[C@H]3[C@@H](O)[C@H](n4cnc5c(=O)[nH]c(N)nc54)O[C@@H]3COP(O)(=S)O[C@H]3[C@@H](O)[C@H](n4ccc(N)nc4=O)O[C@@H]3COP(O)(=S)O[C@H]3[C@@H](O)[C@H](n4ccc(N)nc4=O)O[C@@H]3COP(O)(=S)O[C@H]3[C@@H](O)[C@H](n4cnc5c(N)ncnc54)O[C@@H]3COP(O)(=S)O[C@H]3[C@@H](NCCCNCCCCNCCCNCCCN)[C@H](n4ccc(=O)[nH]c4=O)O[C@@H]3CO)O2)c(=O)[nH]c1=O (some centres not stated) | 18.5% | 53.6 °C | 71.6 °C
Cc1cn([C@H]2C[C@H](OP(O)(=S)OC[C@H]3O[C@@H](n4ccc(N)nc4=O)[C@H](O)[C@@H]3OP(O)(=S)OC[C@H]3O[C@@H](n4cc(C)c(=O)[nH]c4=O)C[C@@H]3O)[C@@H](COP(O)(=S)O[C@H]3[C@@H](O)[C@H](n4ccc(N)nc4=O)O[C@@H]3COP(O)(=S)O[C@H]3[C@@H](O)[C@H](n4ccc(N)nc4=O)O[C@@H]3COP(O)(=S)O[C@H]3[C@@H](O)[C@H](n4ccc(N)nc4=O)O[C@@H]3COP(O)(=S)O[C@H]3[C@@H](O)[C@H](n4cnc5c(N)ncnc54)O[C@@H]3COP(O)(=S)O[C@H]3[C@@H](O)[C@H](n4cnc5c(=O)[nH]c(N)nc54)O[C@@H]3COP(O)(=S)O[C@H]3[C@@H](O)[C@H](n4ccc(N)nc4=O)O[C@@H]3COP(O)(=S)O[C@H]3[C@@H](O)[C@H](n4cnc5c(=O)[nH]c(N)nc54)O[C@@H]3COP(O)(=S)O[C@H]3C[C@H](n4cc(C)c(=O)[nH]c4=O)O[C@@H]3COP(O)(=S)O[C@H]3[C@@H](O)[C@H](n4cnc5c(=O)[nH]c(N)nc54)O[C@@H]3COP(O)(=S)O[C@H]3[C@@H](O)[C@H](n4ccc(N)nc4=O)O[C@@H]3COP(O)(=S)O[C@H]3[C@@H](O)[C@H](n4cnc5c(=O)[nH]c(N)nc54)O[C@@H]3COP(O)(=S)O[C@H]3[C@@H](O)[C@H](n4ccc(N)nc4=O)O[C@@H]3COP(O)(=S)O[C@H]3[C@@H](O)[C@H](n4ccc(N)nc4=O)O[C@@H]3COP(O)(=S)O[C@H]3[C@@H](O)[C@H](n4cnc5c(N)ncnc54)O[C@@H]3COP(O)(=S)O[C@H]3[C@@H](NCCCCNCCN)[C@H](n4ccc(=O)[nH]c4=O)O[C@@H]3CO)O2)c(=O)[nH]c1=O (some centres not stated) | 57.6% | 51.4 °C | 65.1 °C
